{"source": "patent US12144802B2", "about": "“Pharmaceutical compositions of roflumilast and solvents capable of dissolving high amounts of the drug” (ARCUTIS BIOTHERAPEUTICS, INC., priority 2022, dated 2024)", "assay": "solubility (saturation concentration) of roflumilast in solvent-water blends, HPLC after 0.2 micron filtration", "assay_type": "physicochemical", "conditions": "controlled room temperature", "procedure": "The solubility of roflumilast in various solvents was determined. Compositions of roflumilast and the solvents identified in Table 1 were prepared. To prepare the compositions, 10 g of a solvent-water blend was added into a 20 mL clear glass vial. 0.05 g of the active pharmaceutical ingredient (API), roflumilast, was added into the vial. The vial was mixed on a jar roller at controlled room temperature at an appropriate speed. A visual evaluation was performed after shaking. If all of the API was dissolved, an additional 0.05 g of API was added into the vial and further mixing was performed. If any API remained undissolved, the total amount of API added to the vial was recorded. The visual inspection was repeated as necessary until no more API could be dissolved. For each solvent, the solubility was determined by syringe filtering (0.2 micron filter) the solvent blend to remove undissolved roflumilast and determining the amount of dissolved roflumilast using HPLC analysis. Composition of the solvent blends were an equal molar solvent-water mixtures, as well as a 1:2 (weight:weight) solvent-water blends. Transcutol P, which is described for use with roflumilast in U.S. Patent Publication No. 2019/009133, was used as a reference point in Example 1."}
{"smiles": "O=C(Nc1c(Cl)cncc1Cl)c1ccc(OC(F)F)c(OCC2CC2)c1", "note": "[roflumilast, N-(3,5-dichloropyrid-4-yl)-3-cyclopropylmethoxy-4-difluoromethoxybenzamide]", "values": [{"measurement": "μg roflumilast per mL blend (saturation concentration)", "setting": "1:2 solvent to water (weight:weight), reference solvent Transcutol P (111-90-0), 5.00 g solvent, 10.01 g water", "value": 45.01, "unit": "µg/mL"}, {"measurement": "μg roflumilast per mL blend (saturation concentration)", "setting": "1:2 solvent to water (weight:weight), solvent 1,2-hexanediol (6920-22-5), 5.02 g solvent, 10.02 g water", "value": 293.26, "unit": "µg/mL"}, {"measurement": "μg roflumilast per mL blend (saturation concentration)", "setting": "1:2 solvent to water (weight:weight), solvent 1,2-pentanediol (3174-67-2), 5.01 g solvent, 10.04 g water", "value": 139.71, "unit": "µg/mL"}, {"measurement": "μg roflumilast per mL blend (saturation concentration)", "setting": "1:2 solvent to water (weight:weight), solvent 1,3-butylene glycol (107-88-0), 5.01 g solvent, 10.00 g water", "value": 11.27, "unit": "µg/mL"}, {"measurement": "μg roflumilast per mL blend (saturation concentration)", "setting": "1:2 solvent to water (weight:weight), solvent 1,3-propanediol (504-63-2), 5.01 g solvent, 10.02 g water", "value": 6.23, "unit": "µg/mL"}, {"measurement": "μg roflumilast per mL blend (saturation concentration)", "setting": "1:2 solvent to water (weight:weight), solvent 1,6-hexanediol (629-11-8), 5.01 g solvent, 10.02 g water", "value": 112.31, "unit": "µg/mL"}, {"measurement": "μg roflumilast per mL blend (saturation concentration)", "setting": "1:2 solvent to water (weight:weight), solvent 2-(2-butoxy-ethoxy)ethanol (112-34-5), 5.01 g solvent, 10.01 g water", "value": 802.24, "unit": "µg/mL"}, {"measurement": "μg roflumilast per mL blend (saturation concentration)", "setting": "1:2 solvent to water (weight:weight), solvent 5-methyloxolan-2-one (108-29-2), 5.01 g solvent, 10.01 g water", "value": 392.14, "unit": "µg/mL"}, {"measurement": "μg roflumilast per mL blend (saturation concentration)", "setting": "1:2 solvent to water (weight:weight), solvent Pantolactone (599-04-2), 5.03 g solvent, 10.02 g water", "value": 62.04, "unit": "µg/mL"}, {"measurement": "μg roflumilast per mL blend (saturation concentration)", "setting": "1:2 solvent to water (weight:weight), solvent dipropylene glycol (25265-71-8), 5.01 g solvent, 10.01 g water", "value": 34.44, "unit": "µg/mL"}, {"measurement": "μg roflumilast per mL blend (saturation concentration)", "setting": "1:2 solvent to water (weight:weight), solvent propylene glycol methyl ethyl acetate (107-98-2), 5.01 g solvent, 10.03 g water", "value": 65.80, "unit": "µg/mL"}, {"measurement": "μg roflumilast per mL blend (saturation concentration)", "setting": "equal molar solvent-water blend, reference solvent Transcutol P (111-90-0), 2.00 g solvent, 14.81 g water", "value": 2.55, "unit": "µg/mL"}, {"measurement": "μg roflumilast per mL blend (saturation concentration)", "setting": "equal molar solvent-water blend, solvent 1,2-hexanediol (6920-22-5), 2.00 g solvent, 13.24 g water", "value": 37.67, "unit": "µg/mL"}, {"measurement": "μg roflumilast per mL blend (saturation concentration)", "setting": "equal molar solvent-water blend, solvent 1,2-pentanediol (3174-67-2), 2.21 g solvent, 12.80 g water", "value": 4.16, "unit": "µg/mL"}, {"measurement": "μg roflumilast per mL blend (saturation concentration)", "setting": "equal molar solvent-water blend, solvent 1,3-butylene glycol (107-88-0), 2.52 g solvent, 12.51 g water", "value": 1.46, "unit": "µg/mL"}, {"measurement": "μg roflumilast per mL blend (saturation concentration)", "setting": "equal molar solvent-water blend, solvent 1,3-propanediol (504-63-2), 3.00 g solvent, 12.60 g water", "value": 2.77, "unit": "µg/mL"}, {"measurement": "μg roflumilast per mL blend (saturation concentration)", "setting": "equal molar solvent-water blend, solvent 1,6-hexanediol (629-11-8), 2.00 g solvent, 13.11 g water", "value": 5.81, "unit": "µg/mL"}, {"measurement": "μg roflumilast per mL blend (saturation concentration)", "setting": "equal molar solvent-water blend, solvent 2-(2-butoxy-ethoxy)ethanol (112-34-5), 1.50 g solvent, 13.50 g water", "value": 2.29, "unit": "µg/mL"}, {"measurement": "μg roflumilast per mL blend (saturation concentration)", "setting": "equal molar solvent-water blend, solvent 5-methyloxolan-2-one (108-29-2), 2.51 g solvent, 14.03 g water", "value": 7.80, "unit": "µg/mL"}, {"measurement": "μg roflumilast per mL blend (saturation concentration)", "setting": "equal molar solvent-water blend, solvent Pantolactone (599-04-2), 2.00 g solvent, 14.41 g water", "value": 0.96, "unit": "µg/mL"}, {"measurement": "μg roflumilast per mL blend (saturation concentration)", "setting": "equal molar solvent-water blend, solvent dipropylene glycol (25265-71-8), 2.02 g solvent, 14.84 g water", "value": 2.27, "unit": "µg/mL"}, {"measurement": "μg roflumilast per mL blend (saturation concentration)", "setting": "equal molar solvent-water blend, solvent propylene glycol methyl ethyl acetate (107-98-2), 2.50 g solvent, 12.52 g water", "value": 6.04, "unit": "µg/mL"}]}
